In article PMC12005307, “A biofilm-targeting lipo-peptoid to treat Pseudomonas aeruginosa and Staphylococcus aureus co-infections” (Biofilm, 2025):
In brackets after ≈: the same amount, converted by molar mass. Where two headings read alike, the source gives them in different places.

Assays:
P. aeruginosa LESB58 [1] = assay: MIC, broth microdilution; assay type: cell-based; details: Pseudomonas aeruginosa
Procedure: (§1) Minimum inhibitory concentrations (MIC) were determined using an adapted broth microdilution method in Greiner bio flat chimney polypropylene 96-well plates. P. aeruginosa was used at 1 × 10^6 CFU/mL and S. aureus at 5 × 10^6 CFU/mL in MHB (Oxoid) and DFG, respectively. A separate polypropylene plate was used to prepare two-fold peptoid dilutions in PBS pH 7.5 (Gibco). Bacterial growth was determined by visible turbidity after incubation at 37 °C for 16 h (S. aureus) or 24 h (P. aeruginosa). MIC values were determined as the lowest concentration of the drug where no bacterial growth was visible. Metabolic activity (color change from blue to pink) was further determined by adding the metabolic dye PrestoBlue™ (Invitrogen) to each well for 30 min as confirmation of visual determination. All tests were performed in triplicate.

S. aureus USA300 LAC [2] = assay: MIC, broth microdilution; assay type: cell-based; details: Staphylococcus aureus, Table S6, antibiotic screen, medium not given
Procedure: as §1

P. aeruginosa LESB58 [3] = assay: Checkerboard titration assay (in vitro synergy); assay type: cell-based, Pseudomonas aeruginosa; details: DFG; for Fold decrease in TM18 MIC: TM18 in combination with the named antibiotic; for Fold decrease in TM18 MIC / FICI, antibiotic combination with TM18: checkerboard; for Fold decrease in antibiotic MIC: antibiotic in combination with TM18, checkerboard; for FICI, antibiotic combination with TM18: 1 × 10^6 CFU/mL, 37 °C, 16–24 h, >0.5 and <=1 additive
Procedure: (§2) Each compound was serially diluted in PBS before transferring to a 96-well plate containing 1 × 10^6 CFU/mL P. aeruginosa or S. aureus, respectively, in DFG medium and incubated at 37 °C for 16–24 h. The MIC or combinatorial effect was determined as the lowest concentration with no visible growth and the fractional inhibitory concentration index (FICI) was calculated as [(MICA in combination)/MICA] + [(MICB in combination)/MICB] as previously. FICIs ≤ 0.5 indicate synergy, 0.5–1 indicate additivity and values above 1 indicate indifference or antagonism.

S. aureus USA300 LAC [4] = assay: Checkerboard titration assay (in vitro synergy); assay type: cell-based, Staphylococcus aureus; details: DFG; for Fold decrease in TM18 MIC: TM18 in combination with the named antibiotic; for Fold decrease in TM18 MIC / FICI, antibiotic combination with TM18: checkerboard; for Fold decrease in antibiotic MIC: antibiotic in combination with TM18, checkerboard; for FICI, antibiotic combination with TM18: 1 × 10^6 CFU/mL, 37 °C, 16–24 h, >0.5 and <=1 additive
Procedure: as §2

[5] = tested on: P. aeruginosa LESB58 and S. aureus USA300 LAC; assay: Murine skin abscess model, co-infection, abscess size; assay type: in vivo, Pseudomonas aeruginosa and Staphylococcus aureus; details: 2.5 × 10^7 CFU of each species s.c., 5 mg/kg of each agent intra-abscess after 1 h
Procedure: (§3) The abscess model was performed as described previously for mono-species infections and modified as follows for dual-species infection. P. aeruginosa and S. aureus were grown individually to an OD600 of 1.0 in dYT broth. Bacterial cells were washed twice in PBS pH 7.4 (Gibco) and resuspended to an OD600 of 2.0 for S. aureus (∼2.5 × 10^7) and 1.0 for P. aeruginosa (∼2.5 × 10^7). For co-infections, P. aeruginosa and S. aureus were mixed (1:1) immediately before injecting 50 μL subcutaneously into the right side of the dorsum. TM1, TM14, TM18, or sterile PBS were injected directly into the infected area 1-h post-infection at a concentration of 5 mg/kg which was the highest concentration determined as non-toxic in our murine model (Table S10). The progression of the infection was monitored daily. A caliper was used to measure the abscess lesion size manually. The SilhouetteStar™ 3D wound camera and SilhouetteConnect™ software were used to photograph, measure, and analyze abscess lesion sizes (visible dermonecrosis). The skin abscesses (including accumulated pus) were excised and homogenized in sterile PBS using SPEX®SamplePrep 1600 MiniG™ for 5 min. […]
(§4) In vitro experiments were performed with at least three biological replicates. […] The predicted additive effect (PAE) was determined by calculating the sum of CFU log reduction for each individual treatment. […]

P. aeruginosa LESB58 [6] = assay: Murine skin abscess model, co-infection, P. aeruginosa survivors; assay type: in vivo, Pseudomonas aeruginosa; details: 5 mg/kg intra-abscess after 1 h, day 3, CFU on selective agar
Procedure: as §3, §4

S. aureus USA300 LAC [7] = assay: Murine skin abscess model, co-infection, S. aureus survivors; assay type: in vivo, Staphylococcus aureus; details: 5 mg/kg intra-abscess after 1 h, day 3, CFU on selective agar
Procedure: as §3, §4

[8] = Table S6, antibiotic screen, medium not given, read-out: MIC

Row | Structure (SMILES) | MIC (P. aeruginosa LESB58 [1]) | MIC (S. aureus USA300 LAC [2]) | Fold decrease in TM18 MIC (P. aeruginosa LESB58 [3]) | Fold decrease in antibiotic MIC (P. aeruginosa LESB58 [3]) | FICI, antibiotic combination with TM18 (P. aeruginosa LESB58 [3]) | Fold decrease in TM18 MIC (S. aureus USA300 LAC [4]) | Fold decrease in antibiotic MIC (S. aureus USA300 LAC [4]) | FICI, antibiotic combination with TM18 (S. aureus USA300 LAC [4]) | reduction of abscess sizes ([5]; day 3) | reduction of abscess sizes ([5]; day 3, listed as Meropenem) | reduction of P. aeruginosa survivors (P. aeruginosa LESB58 [6]) | reduction of S. aureus survivors (S. aureus USA300 LAC [7]) | MIC (P. aeruginosa LESB58 [1]; [8])
1 | C[C@@H](O)[C@H]1C(=O)N2C(C(=O)O)=C(S[C@@H]3CN[C@H](C(=O)N(C)C)C3)[C@H](C)[C@H]12 [meropenem] | 1.56 µg/mL (≈ 4.07 µM) | 0.78 µg/mL (≈ 2.03 µM) | 2 fold | 2 fold | 1 | 2 fold | 4 fold | 0.75 | 78% | 85% | ~100 fold | ~10 fold | 
2 | CNC(C)C1CCC(N)C(OC2C(N)CC(N)C(OC3OCC(C)(O)C(NC)C3O)C2O)O1 (stereo not shown) [GEN, gentamicin] |  | 0.78 µg/mL (≈ 1.63 µM) | 1 fold | 2 fold | 1 | 1 fold | 2 fold | 1 |  |  |  |  | 7.81 µg/mL (≈ 16.4 µM)
3 | NC[C@H]1O[C@H](O[C@H]2[C@H](O)[C@@H](O[C@H]3O[C@H](CO)[C@@H](O)[C@H](N)[C@H]3O)[C@H](N)C[C@@H]2N)[C@H](N)C[C@@H]1O [tobramycin] |  | 0.78 µg/mL (≈ 1.67 µM) | 2 fold | 2 fold | 1 | 1 fold | 1 fold | 1 |  |  |  |  | 1.56 µg/mL (≈ 3.34 µM)
4 | CC[C@H]1OC(=O)[C@H](C)[C@@H](O[C@H]2C[C@@](C)(OC)[C@@H](O)[C@H](C)O2)[C@H](C)[C@@H](O[C@@H]2O[C@H](C)C[C@H](N(C)C)[C@H]2O)[C@](C)(O)C[C@@H](C)CN(C)[C@H](C)[C@@H](O)[C@]1(C)O [AZM, azithromycin] |  | 125 µg/mL (≈ 167 µM) | 8 fold | 2 fold | 0.625 | 1 fold | 1 fold | 1 |  |  |  |  | 25 µg/mL (≈ 33.4 µM)
5 | O=C(O)c1cn(C2CC2)c2cc(N3CCNCC3)c(F)cc2c1=O [CIP, ciprofloxacin] |  | 15.6 µg/mL (≈ 47.2 µM) | 1 fold | 2 fold | 1 | 4 fold | 2 fold | 0.75 |  |  |  |  | 3.13 µg/mL (≈ 9.45 µM)
6 | CC(C)(O/N=C(\C(=O)N[C@@H]1C(=O)N2C(C(=O)[O-])=C(C[n+]3ccccc3)CS[C@H]12)c1csc(N)n1)C(=O)O [CAZ, ceftazidime] |  | 31.2 µg/mL (≈ 57.2 µM) | 2 fold | 4 fold | 0.75 | 1 fold | 1 fold | 1 |  |  |  |  | 12.5 µg/mL (≈ 22.9 µM)
